ChEMBL document CHEMBL1141945, “Synthesis and biological evaluation of novel (L)-alpha-amino acid methyl ester, heteroalkyl, and aryl substituted 1,4-naphthoquinone derivatives as antifungal and antibacterial agents” (2005)
In brackets after ≈: the same amount, converted by molar mass.

What was measured:
[1] = test system: Aspergillus fumigatus; test: Antifungal activity against Aspergillus fumigatus; type: functional
[2] = test system: Trichophyton benhamiae; test: Antifungal activity against Trichophyton mentagrophytes; type: functional, Arthroderma benhamiae
[3] = test system: Candida albicans; test: Antifungal activity against Candida albicans; type: functional
[4] = test system: Candida parapsilosis; test: Antifungal activity against Candida parapsilosis; type: functional; settings: Lodderomyces parapsilosis, ATCC 22019
[5] = test system: Cryptococcus neoformans; test: Antifungal activity against Cryptococcus neoformans; type: functional
[6] = test system: Sporothrix schenckii; test: Antifungal activity against Sporothrix schenckii; type: functional
[7] = test system: Pseudomonas aeruginosa; test: Antibacterial activity against Pseudomonas aeruginosa; type: functional
[8] = test system: Klebsiella pneumoniae; test: Antibacterial activity against Klebsiella pneumoniae; type: functional
[9] = test system: Enterococcus faecalis; test: Antibacterial activity against Streptococcus faecalis; type: functional
[10] = test system: Staphylococcus aureus; test: Antibacterial activity against Staphylococcus aureus; type: functional
[11] = test system: Escherichia coli; test: Antibacterial activity against Escherichia coli; type: functional

Compound | MIC [1] [µg/mL] | MIC [2] [µg/mL] | MIC [3] [µg/mL] | MIC [4] [µg/mL] | MIC [5] [µg/mL] | MIC [6] [µg/mL] | MIC [7] [µg/mL] | MIC [8] [µg/mL] | MIC [9] [µg/mL] | MIC [10] [µg/mL] | MIC [11] [µg/mL] | MIC90 [7] [µg/mL] | MIC90 [8] [µg/mL] | MIC90 [10] [µg/mL] | MIC90 [11] [µg/mL]
COC(=O)C(C)/N=C1/C(=O)c2ccccc2C(O)=C1O (centres undefined) | > 50 | > 50 | > 50 | 50 (≈ 182 µM) | 25 (≈ 90.8 µM) | > 50 | – | – | – | – | – | – | – | – | –
COC(=O)C(CC(C)C)/N=C1\C=C(O)c2ccccc2C1=O (centres undefined) | > 50 | > 50 | > 50 | 50 (≈ 166 µM) | 25 (≈ 83 µM) | > 50 | > 50 | 6.25 (≈ 20.7 µM) | 12.5 (≈ 41.5 µM) | 12.5 (≈ 41.5 µM) | 12.5 (≈ 41.5 µM) | – | – | – | –
NYSTATIN | – | – | 7.8 | – | 3.5 | 13.2 | – | – | – | – | – | – | – | – | –
NC[C@H]1O[C@H](O[C@H]2[C@H](O)[C@@H](O[C@H]3O[C@H](CO)[C@@H](O)[C@H](N)[C@H]3O)[C@H](N)C[C@@H]2N)[C@H](O)[C@@H](O)[C@@H]1O [KANAMYCIN] | – | – | – | – | – | – | – | – | – | – | – | > 128 | 32 (≈ 66 µM) | 2 (≈ 4.13 µM) | 16 (≈ 33 µM)
O=C1c2ccccc2C(=O)c2c1sc1nccn21 | 25 (≈ 98.3 µM) | 25 (≈ 98.3 µM) | 50 (≈ 197 µM) | – | 12.5 (≈ 49.2 µM) | 25 (≈ 98.3 µM) | > 50 | > 50 | 25 (≈ 98.3 µM) | 50 (≈ 197 µM) | 50 (≈ 197 µM) | – | – | – | –
CC(C)N(C1=C(O)C(=O)c2ccccc2C1=O)C(C)C | – | – | – | – | – | – | 50 (≈ 183 µM) | > 50 | > 50 | > 50 | > 50 | – | – | – | –
COC(=O)C(C)/N=C1\C=C(O)c2ccccc2C1=O (centres undefined) | – | – | – | – | – | – | > 50 | 25 (≈ 96.4 µM) | > 50 | > 50 | > 50 | – | – | – | –
CC(C)N(C1=CC(=O)c2c(O)ccc(O)c2C1=O)C(C)C | > 50 | 50 (≈ 173 µM) | > 50 | – | > 50 | > 50 | – | – | – | – | – | – | – | – | –
OC(Cn1cncn1)(Cn1cncn1)c1ccc(F)cc1F [FLUCONAZOLE] | 2 (≈ 6.53 µM) | 0.5 (≈ 1.63 µM) | 1 (≈ 3.27 µM) | 2 (≈ 6.53 µM) | 1 (≈ 3.27 µM) | 2 (≈ 6.53 µM) | – | – | – | – | – | – | – | – | –
COC(=O)C(CCSC)/N=C1\C=C(O)c2ccccc2C1=O (centres undefined) | > 50 | > 50 | > 50 | > 50 | 25 (≈ 78.3 µM) | > 50 | > 50 | 6.25 (≈ 19.6 µM) | 12.5 (≈ 39.1 µM) | > 50 | > 50 | – | – | – | –
O=C1c2sc3nccn3c2C(=O)c2c(O)ccc(O)c21 | > 50 | 25 (≈ 87.3 µM) | 25 (≈ 87.3 µM) | – | < 12.5 | < 12.5 | > 50 | > 50 | 25 (≈ 87.3 µM) | 50 (≈ 175 µM) | 50 (≈ 175 µM) | – | – | – | –
C[C@@H]1[C@H](O)[C@@H](C)/C=C/C=C/C=C/C=C/C=C/C=C/C=C/[C@H](O[C@@H]2O[C@H](C)[C@@H](O)[C@H](N)[C@@H]2O)C[C@@H]2O[C@](O)(C[C@@H](O)C[C@@H](O)[C@H](O)CC[C@@H](O)C[C@@H](O)CC(=O)O[C@H]1C)C[C@H](O)[C@H]2C(=O)O [AMPHOTERICIN B] | – | 1.56 (≈ 1.69 µM) | 0.39 (≈ 0.422 µM) | – | 0.78 (≈ 0.844 µM) | – | – | – | – | – | – | – | – | – | –
O=C1C(=O)c2ccccc2C(O)=C1Sc1ncc[nH]1 | > 50 | > 50 | > 50 | > 50 | 50 (≈ 184 µM) | > 50 | > 50 | > 50 | 25 (≈ 91.8 µM) | 50 (≈ 184 µM) | > 50 | – | – | – | –
Clc1ccc(COC(Cn2ccnc2)c2ccc(Cl)cc2Cl)c(Cl)c1 (centres undefined) [MICONAZOLE] | 12.5 (≈ 30 µM) | < 0.78 | 25 (≈ 60.1 µM) | – | 12.5 (≈ 30 µM) | – | – | – | – | – | – | – | – | – | –
COC(=O)C/N=C1\C=C(O)c2ccccc2C1=O | 25 (≈ 102 µM) | > 50 | 50 (≈ 204 µM) | 50 (≈ 204 µM) | 50 (≈ 204 µM) | 50 (≈ 204 µM) | – | – | – | – | – | – | – | – | –
GENTAMICIN | – | – | – | – | – | – | 0.78 | 0.39 | – | 0.78 | – | – | – | – | –
NCC[C@H](O)C(=O)N[C@@H]1C[C@H](N)[C@@H](O[C@H]2O[C@H](CN)[C@@H](O)[C@H](O)[C@H]2O)[C@H](O)[C@H]1O[C@H]1O[C@H](CO)[C@@H](O)[C@H](N)[C@H]1O [AMIKACIN] | – | – | – | – | – | – | 2 (≈ 3.42 µM) | 1 (≈ 1.71 µM) | > 64 | 16 (≈ 27.3 µM) | 1 (≈ 1.71 µM) | – | – | – | –
COC(=O)C(CCSC)/N=C1/C(=O)c2ccccc2C(O)=C1O (centres undefined) | 12.5 (≈ 37.3 µM) | 12.5 (≈ 37.3 µM) | 12.5 (≈ 37.3 µM) | 25 (≈ 74.5 µM) | 12.5 (≈ 37.3 µM) | 25 (≈ 74.5 µM) | > 50 | > 50 | 25 (≈ 74.5 µM) | > 50 | > 50 | – | – | – | –
NC[C@H]1O[C@H](O[C@H]2[C@H](O)[C@@H](O[C@H]3O[C@H](CO)[C@@H](O)[C@H](N)[C@H]3O)[C@H](N)C[C@@H]2N)[C@H](N)C[C@@H]1O [TOBRAMYCIN] | – | – | – | – | – | – | 4 (≈ 8.56 µM) | 1 (≈ 2.14 µM) | 32 (≈ 68.4 µM) | 0.25 (≈ 0.535 µM) | 0.5 (≈ 1.07 µM) | – | – | – | –
COC(=O)C/N=C1/C(=O)c2ccccc2C(O)=C1O | – | – | – | – | – | – | 50 (≈ 191 µM) | > 50 | 50 (≈ 191 µM) | 50 (≈ 191 µM) | 50 (≈ 191 µM) | – | – | – | –
